Measured values: patent US9505728B2, “Triazolone compounds and uses thereof” (INCEPTION 2, INC., priority 2012, dated 2016)

Target: T1, Human PPARα (Homo sapiens, UniProt Q07869)
T1 construct: host or cells: proprietary non-human mammalian cells
T1 sequence (Q07869 1-468): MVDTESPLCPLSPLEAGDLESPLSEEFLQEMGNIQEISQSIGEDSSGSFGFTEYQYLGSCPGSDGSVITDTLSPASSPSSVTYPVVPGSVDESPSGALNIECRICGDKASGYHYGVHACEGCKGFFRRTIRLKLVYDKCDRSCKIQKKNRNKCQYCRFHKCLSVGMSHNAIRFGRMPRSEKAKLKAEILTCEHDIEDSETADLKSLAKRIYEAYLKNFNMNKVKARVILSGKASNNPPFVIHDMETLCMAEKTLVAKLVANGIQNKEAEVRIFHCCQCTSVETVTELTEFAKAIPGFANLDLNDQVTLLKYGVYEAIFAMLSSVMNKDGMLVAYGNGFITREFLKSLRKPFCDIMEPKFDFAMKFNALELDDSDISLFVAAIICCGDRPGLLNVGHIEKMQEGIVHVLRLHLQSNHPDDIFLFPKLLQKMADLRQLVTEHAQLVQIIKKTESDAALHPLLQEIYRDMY
Assay: Human PPARα Reporter Assay (luciferase)
Assay type: cell-based
Details: human PPARα reporter cells, overnight incubation, antagonism; read-out: Luciferase IC50
Experimental: Human PPARα Reporter Assay
The screening of test compounds for agonist or antagonist activities against human PPARα receptors was performed using a commercial kit, Human PPARα Reporter Assay System (Indigo Biosciences, Cat. #IB00111).
This nuclear receptor assay system utilizes proprietary non-human mammalian cells engineered to provide constitutive, high-level expression of Human PPARα. Because these cells incorporate a PPARα-responsive luciferase reporter gene, quantifying expressed luciferase activity provides a sensitive surrogate measure of PPARα activity in the treated cells. The primary application of this reporter assay system is in the screening of test samples to quantify any functional activity, either agonist or antagonist, that they may exert against human PPARα.
Briefly, reporter cells are dispensed into wells of the assay plate and then immediately dosed with test compounds. Following an overnight incubation, the treatment media is discarded and Luciferase Detection Reagent (LDR) is added. The intensity of light emission from the ensuing luciferase reaction provides a sensitive measure that is directly proportional to the relative level of PPARα activation in the reporter cells.

IC50 [nM] | SMILES
20 | CCn1c(CCCc2ccc(-c3ccc(C(F)(F)F)c(NS(=O)(=O)c4ccccc4)n3)cc2)nn(Cc2ccc(C(C)(C)C)cc2)c1=O [Example 164, 1-{[4-(tert-Butyl)phenyl]methyl}-4-ethyl-3-[3-(4-{6-[(phenylsulfonyl)amino]-5-(trifluoromethyl)(2-pyridyl)}phenyl)propyl]-1,2,4-triazolin-5-one]
272 | CCn1c(CCCc2ccc(-c3ccc4c(c3)C(C(=O)O)CO4)cc2)nn(Cc2ccc(C(C)(C)C)cc2)c1=O (racemic) [Example 96, (rac)-5-(4-(3-(1-(4-(tert-Butyl)benzyl)-4-ethyl-5-oxo-4,5-dihydro-1H-1,2,4-triazol-3-yl)propyl)phenyl)-2,3-dihydrobenzofuran-3-carboxylic acid]
363 | CC(C)(C)c1ccc(Cn2nc(CCCc3ccc(-c4cccc(CC(=O)O)c4)cc3)n(CC3CC3)c2=O)cc1 [Example 53, 2-(4′-(3-(1-(4-(tert-Butyl)benzyl)-4-(cyclopropylmethyl)-5-oxo-4,5-dihydro-1H-1,2,4-triazol-3-yl)propyl)-[1,1′-biphenyl]-3-yl)acetic acid]
471 | CCn1c(CCCc2ccc(-c3cccc(NS(=O)(=O)c4ccc(C)cc4)c3)cc2)nn(Cc2ccc(C(C)(C)C)cc2)c1=O [Example 7, N-(4′-(3-(1-(4-(tert-Butyl)benzyl)-4-ethyl-5-oxo-4,5-dihydro-1H-1,2,4-triazol-3-yl)propyl)-[1,1′-biphenyl]-3-yl)-4-methylbenzenesulfonamide]
160 | CCn1c(CCCc2ccc(-c3ccc(C)c(NS(=O)(=O)c4ccccc4)c3)cc2)nn(Cc2ccc(C(C)(C)C)cc2)c1=O [Example 152, 1-{[4-(tert-Butyl)phenyl]methyl}-4-ethyl-3-[3-(4-{4-methyl-3-[(phenylsulfonyl)amino]phenyl}phenyl)propyl]-1,2,4-triazolin-5-one]
175 | CCn1c(CCCc2ccc(-c3cccc(C(=O)C(=O)NC4CC4)c3)cc2)nn(Cc2ccc(C(C)(C)C)cc2)c1=O [Example 57, 2-(4′-(3-(1-(4-(tert-Butyl)benzyl)-4-ethyl-5-oxo-4,5-dihydro-1H-1,2,4-triazol-3-yl)propyl)-[1,1′-biphenyl]-3-yl)-N-cyclopropyl-2-oxoacetamide]
201 | CCn1c(CCCc2ccc(-c3cc(C)c(NS(=O)(=O)c4ccccc4)cn3)cc2)nn(Cc2ccc(C(C)(C)C)cc2)c1=O [Example 126, 1-{[4-(tert-Butyl)phenyl]methyl}-4-ethyl-3-[3-(4-{4-methyl-5-[(phenylsulfonyl)amino](2-pyridyl)}phenyl)propyl]-1,2,4-triazolin-5-one]
15 | CCn1c(CCCc2ccc(-c3ccc(OC(F)(F)F)c(C(=O)O)c3)cc2)nn(Cc2ccc(C(C)(C)C)cc2)c1=O [Example 131, 4′-(3-(1-(4-(tert-Butyl)benzyl)-4-ethyl-5-oxo-4,5-dihydro-1H-1,2,4-triazol-3-yl)propyl)-4-(trifluoromethoxy)-[1,1′-biphenyl]-3-carboxylic acid]
597 | CCn1c(CCCc2ccc(-c3ccc(OC)c(C4(C(=O)O)CCC4)c3)cc2)nn(Cc2ccc(C(C)(C)C)cc2)c1=O [Example 133, 1-(4′-(3-(1-(4-(tert-Butyl)benzyl)-4-ethyl-5-oxo-4,5-dihydro-1H-1,2,4-triazol-3-yl)propyl)-4-methoxy-[1,1′-biphenyl]-3-yl)cyclobutanecarboxylic acid]
78 | CCn1c(CCCc2ccc(-c3ccc(C4(O)CCC4)cc3)cc2)nn(Cc2ccc(C(C)(C)C)cc2)c1=O [Example 176, 1-(4-(tert-Butyl)benzyl)-4-ethyl-3-(3-(4′-(1-hydroxycyclobutyl)-[1,1′-biphenyl]-4-yl)propyl)-1H-1,2,4-triazol-5(4H)-one]
695 | CCn1c(CCCc2ccc(-c3cccc(NC(=O)C4CC4)n3)cc2)nn(Cc2ccc(C(C)(C)C)cc2)c1=O [Example 102, N-(6-{4-[3-(1-{[4-(tert-Butyl)phenyl]methyl}-4-ethyl-5-oxo(1,2,4-triazolin-3-yl))propyl]phenyl}(2-pyridyl))cyclopropylcarboxamide]
1280 | CCn1c(CC2CC2c2ccc(-c3cccc(CC(=O)O)c3)cc2)nn(Cc2ccc(C(C)(C)C)cc2)c1=O (stereo not drawn) [Example 30, 2-(4′-(2-((1-(4-(tert-butyl)benzyl)-4-ethyl-5-oxo-4,5-dihydro-1H-1,2,4-triazol-3-yl)methyl)cyclopropyl)-[1,1′-biphenyl]-3-yl)acetic acid]

The next lines start with the compound.

SMILES | IC50 [nM]
CCn1c(CCCc2ccc(-c3cc(NS(=O)(=O)c4ccccc4)ccn3)cc2)nn(Cc2ccc(C(C)(C)C)cc2)c1=O [Example 16, N-(2-(4-(3-(1-(4-(tert-Butyl)benzyl)-4-ethyl-5-oxo-4,5-dihydro-1H-1,2,4-triazol-3-yl)propyl)phenyl)pyridin-4-yl)benzenesulfonamide] | 90
CCn1c(CCCc2ccc(-c3cccc(CC(=O)NS(=O)(=O)c4ccccc4)c3)cc2)nn(Cc2ccc(C(C)(C)C)cc2)c1=O [Example 8, 2-(4′-(3-(1-(4-(tert-Butyl)benzyl)-4-ethyl-5-oxo-4,5-dihydro-1H-1,2,4-triazol-3-yl)propyl)-[1,1′-biphenyl]-3-yl)-N-(phenylsulfonyl) acetamide] | 304
CCn1c(CCCc2ccc(-c3cc(CC(=O)O)ccc3F)cc2)nn(Cc2ccc(C(C)(C)C)cc2)c1=O [Example 19, 2-(4′-(3-(1-(4-(tert-Butyl)benzyl)-4-ethyl-5-oxo-4,5-dihydro-1H-1,2,4-triazol-3-yl)propyl)-6-fluoro-[1,1′-biphenyl]-3-yl)acetic acid] | 796
CCn1c(CCCc2ccc(-c3ccnc(NS(=O)(=O)c4ccccc4)n3)cc2)nn(Cc2ccc(C(C)(C)C)cc2)c1=O [Example 138, N-(4-(4-(3-(1-(4-(tert-Butyl)benzyl)-4-ethyl-5-oxo-4,5-dihydro-1H-1,2,4-triazol-3-yl)propyl)phenyl)pyrimidin-2-yl)benzenesulfonamide] | 33
CCn1c(CCCc2ccc(-c3ccc(C)c(C(=O)O)c3)cc2)nn(Cc2ccc(C(C)(C)C)cc2)c1=O [Example 132, 4′-(3-(1-(4-(tert-Butyl)benzyl)-4-ethyl-5-oxo-4,5-dihydro-1H-1,2,4-triazol-3-yl)propyl)-4-methyl-[1,1′-biphenyl]-3-carboxylic acid] | 12
CCOc1ccc(-c2ccc(CCCc3nn(Cc4ccc(C(C)(C)C)cc4)c(=O)n3CC)cc2)cc1C1(C#N)CC1 [Example 120, 1-(4′-(3-(1-(4-(tert-Butyl)benzyl)-4-ethyl-5-oxo-4,5-dihydro-1H-1,2,4-triazol-3-yl)propyl)-4-ethoxy-[1,1′-biphenyl]-3-yl)cyclopropanecarbonitrile] | 604
CCn1c(CCCc2ccc(-c3ccc(OC)c(CNS(=O)(=O)c4ccccc4)c3)cc2)nn(Cc2ccc(C(C)(C)C)cc2)c1=O [Example 185, 1-{[4-(tert-Butyl)phenyl]methyl}-4-ethyl-3-{3-[4-(4-methoxy-3-{[(phenylsulfonyl)amino]methyl}phenyl)phenyl]propyl}-1,2,4-triazolin-5-one] | 423
CCn1c(CCCc2ccc(-c3cccc(C(F)(F)C(=O)O)c3)cc2)nn(Cc2ccc(C(C)(C)C)cc2)c1=O [Example 28, 2-(4′-(3-(1-(4-(tert-Butyl)benzyl)-4-ethyl-5-oxo-4,5-dihydro-1H-1,2,4-triazol-3-yl)propyl)-[1,1′-biphenyl]-3-yl)-2,2-difluoroacetic acid] | 1980
CCn1c(CCCc2ccc(-c3cccc(NC(=O)c4ccccc4)n3)cc2)nn(Cc2ccc(C(C)(C)C)cc2)c1=O [Example 97, N-(6-{4-[3-(1-{[4-(tert-Butyl)phenyl]methyl}-4-ethyl-5-oxo(1,2,4-triazolin-3-yl))propyl]phenyl}(2-pyridyl))benzamide] | 745
CCCOc1ccc(-c2ccc(CCCc3nn(Cc4ccc(C(C)(C)C)cc4)c(=O)n3CC)cc2)cc1C(=O)O [Example 168, 4′-(3-(1-(4-(tert-Butyl)benzyl)-4-ethyl-5-oxo-4,5-dihydro-1H-1,2,4-triazol-3-yl)propyl)-4-propoxy-[1,1′-biphenyl]-3-carboxylic acid] | 9
CCOc1ccc(-c2ccc(CCCc3nn(Cc4ccc(C(C)(C)C)cc4)c(=O)n3CC)cc2)cc1C(=O)O [Example 66, 4′-(3-(1-(4-(tert-Butyl)benzyl)-4-ethyl-5-oxo-4,5-dihydro-1H-1,2,4-triazol-3-yl)propyl)-4-ethoxy-[1,1′-biphenyl]-3-carboxylic acid] | 3
CCCOc1ccc(-c2ccc(CCCc3nn(Cc4ccc(C(C)(C)C)cc4)c(=O)n3CC)cc2)cc1CC(=O)O [Example 94, 2-(4′-(3-(1-(4-(tert-Butyl)benzyl)-4-ethyl-5-oxo-4,5-dihydro-1H-1,2,4-triazol-3-yl)propyl)-4-propoxy-[1,1′-biphenyl]-3-yl)acetic acid] | 16
